One test concerns the target T1, S100B (Homo sapiens, UniProt P04271).
T1 construct: made in house; host or cells: Escherichia coli BL21(DE3)
T1 sequence (P04271 1-92): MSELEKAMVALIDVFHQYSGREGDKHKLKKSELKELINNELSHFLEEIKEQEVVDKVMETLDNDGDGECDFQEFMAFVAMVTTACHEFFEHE
Put plainly: Pull-down assay with immobilized protein and LSM libraries. In kind it is binding. As to conditions: H12 library; 1:1 binding assumed; read-out: Surface mapping KD (apparent). Here is the method: (§1) Pull-down assays with immobilized test proteins and foldameric LSM libraries were carried out. Proteins were equilibrated with LSM probes, and equilibrium bound fractions (FB) were determined from the unbound fractions measured by HPLC-MS methods. Hits were corrected with background binding of the resin. The protocol allowed all binding events to equilibrate irrespective of affinity, specificity, and binding kinetics. This was essential to judge overall druggability and promiscuity. Importantly, the concentration of protein and the total concentration of foldameric LSMs were equimolar, which minimized competition between the probes. This experimental setup approximated independent binding of individual library members. Results were visualized as heat maps of dissociation constants (Fig. 3).
(§2) Pull-down assay and data analysis
(§3) Pull-down assay. LSM sublibraries were screened separately as previously described.(2) Experiments were performed in the following buffers: (i) 20 mM pH 7.4 HEPES, 150 mM NaCl, 5 mM CaCl2 for CaM; (ii) 50 mM pH 7.4 HEPES, 150 mM NaCl, 1 mM TCEP, 1 mM CaCl2 for S100 proteins; (iii) 20 mM pH 7.4 HEPES, 150 mM NaCl, 1 mM TCEP for Gal-1 and (iv) 20 mM pH 7.4 HEPES, 150 mM NaCl for RecQ-WH. Assays were performed in paper filter spin cups (Thermo Scientific) with sample volumes of 100 µl. Hexahistidine-tagged proteins were immobilized on previously washed Co-NTA resin (TALON, Takara Bio USA, Inc., Mountain View, CA) in 64 µM final concentration. LSM sublibrary was added, in which each of the 64 library members were used at a concentration of 1 µM. Samples were incubated at room temperature for 30 min with shaking at 100 rpm. Then, samples were centrifuged at 1000 rpm for 2 min and washed with 100 µl pull-down buffer to remove unbound compounds.
(§4) The control experiments were performed using the same compounds and the resin but without the immobilized protein. In case of competitive assays, competitor peptides were added to LSM sublibrary samples in 200 µM final concentration. In the case of Gal-1, lactose (competitor) was used in a concentration of 10 mM. Experiments were performed at least twice. Mean […]
(§5) LC-MS methods and parameters. HPLC/ESI-MS analysis was used to characterize the samples from the pull-down assay. LC-MS analysis was performed with a Thermo Scientific Dionex UltiMate 3000 HPLC system interfaced to an LTQ ion trap mass spectrometer (Thermo Electron Corp., San Jose, CA, USA). Samples were injected onto an Aeris Widepore XB-C18 (250 x 4.6 mm) analytical HPLC column using gradient elution 5-80 % solution B during 25 minutes. For pull-down samples, eluent composition was 0.1% acetic acid in distilled water (Solution A) and 0.1% acetic acid in acetonitrile (solution B). Mass spectra were acquired in full scan mode from 200 to 2000 m/z range. For overlapping peaks, selective reaction monitoring (SRM) was […]
(§6) MS data analysis. Thermo Xcalibur 2.2 software was used for peak identification and integration. The majority of the foldameric fragments could be resolved independently via HPLC-MS/MS measurements based on molecular weight, MS fragmentation pattern and retention time. Peaks of some foldamers with β3-hIle or β3-hLeu in position R2 could not be resolved, these were integrated and averaged. In the processing method, each sample component was associated to a chromatographic peak based on previously identified mass (m/z) and retention time (ref (2) and Table S7-10). Using ICIS peak detection algorithm, the general detection and integration criteria were: smoothing points: 5, baseline window: 80, area noise factor: 5, peak noise factor: 10. Using these processing setups, all raw data files were reprocessed together and analyzed. Errors in peak identification during the automatic processing were corrected manually.
(§7) Calculation of the discussed parameters
(§8) 1. Bound fractions (FB.) were calculated from the HPLC-MS intensity loss of the LSM probes compared to the control where no protein was immobilized to the resin: […]
With `NC(=O)[C@H]1CCC[C@@H]1NC(=O)[C@H]1CCC[C@@H]1NC(=O)C[C@H](CO)NC(=O)[C@H]1CCC[C@@H]1NC(=O)[C@H]1CCC[C@@H]1NC(=O)C[C@H](Cc1ccc(O)cc1)NC(=O)[C@H]1CCC[C@@H]1NC(=O)[C@H]1CCC[C@@H]1N` [H12 YS], the Kd came to 195 µM. For `CC(C)C[C@@H](CC(=O)N[C@H]1CCC[C@@H]1C(=O)N[C@H]1CCC[C@@H]1C(=O)N[C@@H](CCC(N)=O)CC(=O)N[C@H]1CCC[C@@H]1C(=O)N[C@H]1CCC[C@@H]1C(N)=O)NC(=O)[C@H]1CCC[C@@H]1NC(=O)[C@H]1CCC[C@@H]1N` [H12 LQ], the Kd turned out to be 348 µM.

As for `C[C@@H](O)[C@@H](CC(=O)N[C@H]1CCC[C@@H]1C(=O)N[C@H]1CCC[C@@H]1C(=O)N[C@@H](CCCCN)CC(=O)N[C@H]1CCC[C@@H]1C(=O)N[C@H]1CCC[C@@H]1C(N)=O)NC(=O)[C@H]1CCC[C@@H]1NC(=O)[C@H]1CCC[C@@H]1N` [H12 TK], the Kd came to 253 µM. On to `N=C(N)NCCC[C@@H](CC(=O)N[C@H]1CCC[C@@H]1C(=O)N[C@H]1CCC[C@@H]1C(=O)N[C@@H](CC(N)=O)CC(=O)N[C@H]1CCC[C@@H]1C(=O)N[C@H]1CCC[C@@H]1C(N)=O)NC(=O)[C@H]1CCC[C@@H]1NC(=O)[C@H]1CCC[C@@H]1N` [H12 RN], for which the Kd worked out at 217 µM.

Take `CC[C@H](C)[C@@H](CC(=O)N[C@H]1CCC[C@@H]1C(=O)N[C@H]1CCC[C@@H]1C(=O)N[C@@H](CCCCN)CC(=O)N[C@H]1CCC[C@@H]1C(=O)N[C@H]1CCC[C@@H]1C(N)=O)NC(=O)[C@H]1CCC[C@@H]1NC(=O)[C@H]1CCC[C@@H]1N` [H12 IK]: the Kd is 87 µM. In the case of `C[C@@H](CC(=O)N[C@H]1CCC[C@@H]1C(=O)N[C@H]1CCC[C@@H]1C(=O)N[C@@H](CCCNC(=N)N)CC(=O)N[C@H]1CCC[C@@H]1C(=O)N[C@H]1CCC[C@@H]1C(N)=O)NC(=O)[C@H]1CCC[C@@H]1NC(=O)[C@H]1CCC[C@@H]1N` [H12 AR], the Kd was found to be 219 µM.

As to `CC(C)C[C@@H](CC(=O)N[C@H]1CCC[C@@H]1C(=O)N[C@H]1CCC[C@@H]1C(=O)N[C@H](CC(=O)N[C@H]1CCC[C@@H]1C(=O)N[C@H]1CCC[C@@H]1C(N)=O)[C@@H](C)O)NC(=O)[C@H]1CCC[C@@H]1NC(=O)[C@H]1CCC[C@@H]1N` [H12 LT], the Kd was determined as 216 µM. On the same count and under the same terms, with `C[C@@H](O)[C@@H](CC(=O)N[C@H]1CCC[C@@H]1C(=O)N[C@H]1CCC[C@@H]1C(N)=O)NC(=O)[C@H]1CCC[C@@H]1NC(=O)[C@H]1CCC[C@@H]1NC(=O)C[C@H](CCCCN)NC(=O)[C@H]1CCC[C@@H]1NC(=O)[C@H]1CCC[C@@H]1N` [H12 KT] the figure was 226 µM. The same measure, in the same setting: with `CC(C)C[C@@H](CC(=O)N[C@H]1CCC[C@@H]1C(=O)N[C@H]1CCC[C@@H]1C(=O)N[C@@H](CO)CC(=O)N[C@H]1CCC[C@@H]1C(=O)N[C@H]1CCC[C@@H]1C(N)=O)NC(=O)[C@H]1CCC[C@@H]1NC(=O)[C@H]1CCC[C@@H]1N` [H12 LS] the figure was 258 µM. For `NCCCC[C@@H](CC(=O)N[C@H]1CCC[C@@H]1C(=O)N[C@H]1CCC[C@@H]1C(N)=O)NC(=O)[C@H]1CCC[C@@H]1NC(=O)[C@H]1CCC[C@@H]1NC(=O)C[C@H](CO)NC(=O)[C@H]1CCC[C@@H]1NC(=O)[C@H]1CCC[C@@H]1N` [H12 SK], the Kd is 401 µM. Still for that read-out and setting: in the case of `C[C@@H](CC(=O)N[C@H]1CCC[C@@H]1C(=O)N[C@H]1CCC[C@@H]1C(N)=O)NC(=O)[C@H]1CCC[C@@H]1NC(=O)[C@H]1CCC[C@@H]1NC(=O)C[C@H](CCCCN)NC(=O)[C@H]1CCC[C@@H]1NC(=O)[C@H]1CCC[C@@H]1N` [H12 KA] it was 243 µM.

For the compound `CC[C@H](C)[C@@H](CC(=O)N[C@H]1CCC[C@@H]1C(=O)N[C@H]1CCC[C@@H]1C(=O)N[C@H](CC(=O)N[C@H]1CCC[C@@H]1C(=O)N[C@H]1CCC[C@@H]1C(N)=O)[C@@H](C)O)NC(=O)[C@H]1CCC[C@@H]1NC(=O)[C@H]1CCC[C@@H]1N` [H12 IT], the Kd was 216 µM. The same measure, in the same setting: with `NCCCC[C@@H](CC(=O)N[C@H]1CCC[C@@H]1C(=O)N[C@H]1CCC[C@@H]1C(=O)N[C@@H](CC(N)=O)CC(=O)N[C@H]1CCC[C@@H]1C(=O)N[C@H]1CCC[C@@H]1C(N)=O)NC(=O)[C@H]1CCC[C@@H]1NC(=O)[C@H]1CCC[C@@H]1N` [H12 KN] the figure was 274 µM. On the same count and under the same terms, in the case of `N=C(N)NCCC[C@@H](CC(=O)N[C@H]1CCC[C@@H]1C(=O)N[C@H]1CCC[C@@H]1C(=O)N[C@@H](CCC(N)=O)CC(=O)N[C@H]1CCC[C@@H]1C(=O)N[C@H]1CCC[C@@H]1C(N)=O)NC(=O)[C@H]1CCC[C@@H]1NC(=O)[C@H]1CCC[C@@H]1N` [H12 RQ] it was 210 µM.

Still in this test, the particulars now being: H14 library; 1:1 binding assumed; read-out: Surface mapping KD (apparent).
On to `N=C(N)NCCC[C@@H](CC(=O)N[C@H]1CCCC[C@@H]1C(N)=O)NC(=O)[C@H]1CCCC[C@@H]1NC(=O)[C@H]1CCCC[C@@H]1NC(=O)C[C@H](CCC(=O)O)NC(=O)[C@H]1CCCC[C@@H]1N` [H14 ER], for which the Kd came to 349 µM. Still for that read-out and setting: in the case of `NCCCC[C@@H](CC(=O)N[C@H]1CCCC[C@@H]1C(=O)N[C@H]1CCCC[C@@H]1C(=O)N[C@@H](CCC(=O)O)CC(=O)N[C@H]1CCCC[C@@H]1C(N)=O)NC(=O)[C@H]1CCCC[C@@H]1N` [H14 KE] it was 324 µM; in that of `NC(=O)[C@H]1CCCC[C@@H]1NC(=O)C[C@H](Cc1ccc(O)cc1)NC(=O)[C@H]1CCCC[C@@H]1NC(=O)[C@H]1CCCC[C@@H]1NC(=O)C[C@H](CC(=O)O)NC(=O)[C@H]1CCCC[C@@H]1N` [H14 DY], 461 µM; in that of `N=C(N)NCCC[C@@H](CC(=O)N[C@H]1CCCC[C@@H]1C(N)=O)NC(=O)[C@H]1CCCC[C@@H]1NC(=O)[C@H]1CCCC[C@@H]1NC(=O)C[C@H](CC(=O)O)NC(=O)[C@H]1CCCC[C@@H]1N` [H14 DR], 193 µM.

Take `NCCCC[C@@H](CC(=O)N[C@H]1CCCC[C@@H]1C(N)=O)NC(=O)[C@H]1CCCC[C@@H]1NC(=O)[C@H]1CCCC[C@@H]1NC(=O)C[C@H](CCC(=O)O)NC(=O)[C@H]1CCCC[C@@H]1N` [H14 EK]: the Kd was 324 µM.

In the next test the target is T2, Gal-1 (Homo sapiens, UniProt P09382).
T2 construct: made in house; host or cells: E. coli BL21(DE3)
T2 sequence (P09382 whole entry): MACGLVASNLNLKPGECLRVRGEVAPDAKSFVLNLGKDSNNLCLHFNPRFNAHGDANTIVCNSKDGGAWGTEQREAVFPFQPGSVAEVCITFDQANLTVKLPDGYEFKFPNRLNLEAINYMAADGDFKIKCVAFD
The description is as above. It is filed as binding. Particulars: H12 library; 1:1 binding assumed; read-out: Surface mapping KD (apparent). The method, then:
as §1, §2, §3, §4, §5, §6, §7, §8
Regarding `NC(=O)[C@H]1CCC[C@@H]1NC(=O)[C@H]1CCC[C@@H]1NC(=O)C[C@H](CO)NC(=O)[C@H]1CCC[C@@H]1NC(=O)[C@H]1CCC[C@@H]1NC(=O)C[C@H](Cc1ccc(O)cc1)NC(=O)[C@H]1CCC[C@@H]1NC(=O)[C@H]1CCC[C@@H]1N` [H12 YS], the Kd was determined as 194 µM.

For the compound `CC(C)C[C@@H](CC(=O)N[C@H]1CCC[C@@H]1C(=O)N[C@H]1CCC[C@@H]1C(=O)N[C@@H](CCC(N)=O)CC(=O)N[C@H]1CCC[C@@H]1C(=O)N[C@H]1CCC[C@@H]1C(N)=O)NC(=O)[C@H]1CCC[C@@H]1NC(=O)[C@H]1CCC[C@@H]1N` [H12 LQ], the Kd worked out at 446 µM. Still for that read-out and setting: in the case of `CC(C)C[C@@H](CC(=O)N[C@H]1CCC[C@@H]1C(=O)N[C@H]1CCC[C@@H]1C(N)=O)NC(=O)[C@H]1CCC[C@@H]1NC(=O)[C@H]1CCC[C@@H]1NC(=O)C[C@H](CCC(=O)O)NC(=O)[C@H]1CCC[C@@H]1NC(=O)[C@H]1CCC[C@@H]1N` [H12 EL] it was 244 µM. For `CC(C)C[C@@H](CC(=O)N[C@H]1CCC[C@@H]1C(=O)N[C@H]1CCC[C@@H]1C(=O)N[C@@H](CCC(=O)O)CC(=O)N[C@H]1CCC[C@@H]1C(=O)N[C@H]1CCC[C@@H]1C(N)=O)NC(=O)[C@H]1CCC[C@@H]1NC(=O)[C@H]1CCC[C@@H]1N` [H12 LE], the Kd is 335 µM. `NC(=O)[C@H]1CCC[C@@H]1NC(=O)[C@H]1CCC[C@@H]1NC(=O)C[C@H](Cc1c[nH]c2ccccc12)NC(=O)[C@H]1CCC[C@@H]1NC(=O)[C@H]1CCC[C@@H]1NC(=O)C[C@H](CC(=O)O)NC(=O)[C@H]1CCC[C@@H]1NC(=O)[C@H]1CCC[C@@H]1N` [H12 DW]: the Kd was determined as 240 µM. Still for that read-out and setting: with `CC(C)[C@@H](CC(=O)N[C@H]1CCC[C@@H]1C(=O)N[C@H]1CCC[C@@H]1C(=O)N[C@@H](CO)CC(=O)N[C@H]1CCC[C@@H]1C(=O)N[C@H]1CCC[C@@H]1C(N)=O)NC(=O)[C@H]1CCC[C@@H]1NC(=O)[C@H]1CCC[C@@H]1N` [H12 VS] the figure was 408 µM.

The values are drawn from article PMC8162404, “Proteomimetic surface fragments distinguish targets by function” (Chemical Science, 2020).
